Test results published in US12486250B2, “Muscarinic receptor 4 antagonists and methods of use” (Neurocrine Biosciences, Inc., priority 2019, dated 2025).
Where two headings read alike, the source gives them in different places.

Columns and labels:
human M4 receptor = biological target: T1, human M4 receptor (Homo sapiens, UniProt P08173); assay: Radioligand ([3H]N-methylscopolamine) binding assay, CHO cell membranes; conditions: 1.5 nM tritiated N-methylscopolamine, 90 minutes at 37° C.; read-out: Binding affinity (Ki) M4
T1 construct: expressed in transfected cells; host or cells: CHO cells
T1 sequence (P08173 1-479): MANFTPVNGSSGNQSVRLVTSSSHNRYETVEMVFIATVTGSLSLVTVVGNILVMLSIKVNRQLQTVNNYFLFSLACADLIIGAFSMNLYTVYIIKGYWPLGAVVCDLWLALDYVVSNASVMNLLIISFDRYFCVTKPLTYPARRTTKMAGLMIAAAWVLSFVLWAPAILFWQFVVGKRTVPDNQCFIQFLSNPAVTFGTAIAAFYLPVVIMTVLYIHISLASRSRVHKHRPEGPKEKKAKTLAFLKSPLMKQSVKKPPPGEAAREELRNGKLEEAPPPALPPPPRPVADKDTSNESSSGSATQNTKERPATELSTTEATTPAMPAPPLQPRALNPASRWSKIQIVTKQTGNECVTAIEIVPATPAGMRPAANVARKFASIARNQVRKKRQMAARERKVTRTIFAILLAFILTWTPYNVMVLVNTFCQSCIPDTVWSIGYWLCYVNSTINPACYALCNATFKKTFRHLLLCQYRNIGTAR
Experimental: Binding affinity (Ki) of compounds was measured by inhibition of radioligand binding to membranes from CHO cells expressing human M1, M2, M3, M4 and M5 receptors. Membranes were prepared by nitrogen cavitation and differential centrifugation as previously described (Hoare et al., Mol. Pharmacol. 2003 March; 63(3): 751-65). The radioligand employed was tritiated N-methylscopolamine, used at a concentration of 1.5 nM. A dose-response of twelve concentrations of compound was used, ranging from […]. The assay buffer was 50 mM HEPES, 100 mM NaCl, 5 mM MgCl2, 1 mM ethylenediaminetetraacetic acid, pH-adjusted to pH 7.4. Membranes, radioligand and compound were incubated together for 90 minutes at 37° C., in a total volume of 150 μL in a 96-well plate. Receptor-bound radioligand was then collected by harvesting the assay over glass fiber filters pretreated with polyethylenimine to trap the cell membranes, using rapid vacuum filtration. Harvesting and radioactivity counting was conducted as previously described (see, e.g., Hoare et al., Mol. Pharmacol. 2003 63(3):751-65); Erratum at Mol. Pharmacol. 2005 July; 68(1): 260).

[1] = Rat pharmacokinetics (IV and PO); assay type: in vivo, male Sprague-Dawley rats; conditions: male, Sprague-Dawley, plasma; for Vd: read-out: Vdss; for half-life: read-out: T½ (converted); for Tmax: read-out: Tmax range
Experimental: The pharmacokinetics of Compounds 1, 2, 3A, and 4A were assessed in male Sprague-Dawley rats following either intravenously (IV) or orally (PO) dosing. Sin-life portions of the studies were either conducted internally at Neurocrine Biosciences or contracted to Charles River Laboratories or Agilux Laboratories. All studies were performed according to good scientific principles and internal standard operating procedures (SOPs). However, the studies were exploratory in nature and were not conducted in accordance with the United States Food and Drug Administration (FDA) Good Laboratory Guidance (GLP) regulations.
Adult (8-9 weeks old) male rats were acclimated prior to dose administration. For dosing, rats were either dosed intravenously through the femoral vein or orally via oral gavage. Food and water were provided ad libitum during the acclimation period. The rats were maintained in a controlled temperature and humidity environment with a photoperiod with a 12 hour light to dark cycle. Rats were either dosed fed or fasted. In studies where the rats were fasted, rats were allowed access to food four hours post-dose.
For the IV bolus dose, compound was administered over a period of approximately 30 seconds using a 1 mL syringe via the femoral vein catheter. The IV dose was followed with a bolus of sterile saline (approximately 100 μL). For IV infusion doses, compound was administered using an IV infusion pump to deliver the total dose volume over 1 hour. Rats were connected to the infusion pump through catheter tubing that was connected to the femoral catheter prior to the infusion start. For the oral dose, compound was administered using flexible, polypropylene-shafted, silicone bulb shaped-tipped gavage (Instech Solomon plastic feeding tubes, 18 gauge×75 mm). Animals were periodically observed for eight hours following the dose administration for potential test article related effects.
Serial blood samples from IV and PO dosed rats (N=3 or 4) were collected out to 24 hours post-dose. For the time points up to 8 hours post dose, approximately 200 μL of whole blood was drawn from the jugular catheter or from the tail vein with a 1-mL syringe. The whole blood was transferred to a 600 μL Sarstedt collection tube that contained 1.2-2 mg EDTA-K3/mL of anticoagulant, gently mixed, and then centrifuged for 1.0 min at 13,000 rpm. Approximately 100 μL of plasma was aliquoted. Blood for the terminal time points at 24 hours were collected by […] with a syringe containing 1.6 mg EDTA-K3/mL of anticoagulant, transferred to an Eppendorf and immediately centrifuged for 1.0 min at 13,000 rpm. Approximately 300 μL of plasma was aliquoted. The aliquoted plasma samples were stored at −80° C. until analysis.
For IV and PO dose groups, descriptive pharmacokinetics were derived and evaluated based on the plasma concentrations from each individual rat. Pharmacokinetic parameters were determined using non-compartmental analysis (NCA) of plasma concentration-time profiles in Phoenix WinNonlin pharmacokinetic modeling software Professional (version 6.3; Pharsight Corporation). Nominal time was used for all timepoints unless otherwise indicated. Descriptive statistics (means, standard deviations and coefficient of variation) were also generated. Mean pharmacokinetic summaries of Compounds 1-4 following intravenous and PO dosing in Sprague Dawley rats were summarized in Tables 15 and 16.
Plasma samples of compounds 1, 2, 3A, and 4A were prepared by protein precipitation. Calibration standards and quality control plasma samples were prepared from the same lot of reference standard to quantify the concentration of the study samples. […]

[2] = IV infusion (1 hr), 2 mg/kg, HCl salt
[3] = iv, 1 mg/kg, IV bolus, 1 mg/kg, HCl salt
[4] = iv, 1 mg/kg, IV bolus, HCl salt
[5] = iv, 2 mg/kg, IV infusion (1 hr), 2 mg/kg, HCl salt
[6] = iv, 2 mg/kg, IV infusion (1 hr), HCl salt
[7] = po, 10 mg/kg, PO 10 mg/kg, 1% Tween-80 in water (suspension)
[8] = po, 10 mg/kg, PO 10 mg/kg, 10% PEG-400 in 0.5% MC (suspension)
[9] = po, 10 mg/kg, PO 10 mg/kg, 10% PEG-400 in 0.5% MC in water (solution)
[10] = PO 10 mg/kg, 10% PEG-400 in 0.5% MC in water (solution)
[11] = iv, 2.5 mg/kg, IV bolus, HCl salt
[12] = po, 10 mg/kg, PO 10 mg/kg, 5% Tween-80 in 0.5% (w/v) MC in water (suspension)
[13] = po, 10 mg/kg, PO 10 mg/kg, 30% PG, 20% PEG-400, 0.5% MC in water (solution)

With C[C@@H]1CN(c2cnc(C(F)(F)F)cn2)C[C@H](C)N1C(=O)OCCC1CCN(Cc2ccccc2)CC1 [Compound 1, 2-(1-benzylpiperidin-4-yl)ethyl (2R,6S)-2,6-dimethyl-4-[5-(trifluoromethyl)pyrazin-2-yl]piperazine-1-carboxylate] the Ki (human M4 receptor) was 1.8 nM, the clearance ([1]; IV bolus, 1 mg/kg, HCl salt) was 40.4 mL/min/kg and the Vd ([1]; IV bolus, 1 mg/kg, HCl salt) was 28.2 L/kg. For the same compound, the clearance [1, 2] was 15.8 mL/min/kg, the Vd [1, 2] was 12.1 L/kg and the bioavailability ([1]; PO 10 mg/kg, 10% PEG-400 in 0.5% MC (suspension)) was 89.1%. It also gave a half-life [1, 3] of 9.1 h, an AUC(0-inf) [1, 4] of 415 ng·h/mL and an AUC(0-t) [1, 4] of 357 ng·h/mL. For the same compound, the half-life [1, 5] was 10.2 h, the AUC(0-inf) [1, 6] was 1680 ng·h/mL and the AUC(0-t) [1, 6] was 1780 ng·h/mL. For the same compound, the AUC(0-t) [1, 7] was 3950 ng·h/mL, the Cmax [1, 7] was 280 ng/mL and the Tmax [1, 7] was 1 h. For the same compound, the AUC(0-t) [1, 8] was 3180 ng·h/mL, the Cmax [1, 8] was 164 ng/mL and the Tmax [1, 8] was 2 to 7.5 h. The AUC(0-t) [1, 9] was 3150 ng·h/mL, the Cmax [1, 9] was 264 ng/mL and the Tmax [1, 9] was 0.5 to 1 h.

With C[C@@H]1CN(c2cnc(C(F)(F)F)cn2)C[C@@H](C)N1C(=O)OCCC1CCN(Cc2ccccc2)CC1 [Compound 2, 2-(1-benzylpiperidin-4-yl)ethyl (2R,6R)-2,6-dimethyl-4-[5-(trifluoromethyl)pyrazin-2-yl]piperazine-1-carboxylate] the Ki (human M4 receptor) was 4 nM, the clearance [1, 2] was 44.9 mL/min/kg and the Vd [1, 2] was 36 L/kg. For the same compound, the bioavailability [1, 10] was 81.4%, the half-life [1, 5] was 11 h and the AUC(0-inf) [1, 6] was 747 ng·h/mL. For the same compound, the AUC(0-t) [1, 6] was 613 ng·h/mL, the AUC(0-inf) [1, 9] was 3040 ng·h/mL and the AUC(0-t) [1, 9] was 2190 ng·h/mL. The Cmax [1, 9] was 130 ng/mL, the Tmax [1, 9] was 2 to 7.5 h and the half-life [1, 9] was 12.9 h.

With C[C@@H]1CN(c2ncc(C#N)cn2)C[C@H](C)N1C(=O)NCCC1CCN(Cc2ccccc2)CC1 [Compound 3A] the Ki (human M4 receptor) was 3 nM, the clearance ([1]; IV bolus, 2.5 mg/kg, HCl salt) was 47.5 mL/min/kg and the Vd ([1]; IV bolus, 2.5 mg/kg, HCl salt) was 4.37 L/kg. For the same compound, the bioavailability ([1]; PO 10 mg/kg, 30% PG, 20% PEG-400, 0.5% MC in water (solution)) was 43.7%, the half-life ([1]; iv, 2.5 mg/kg, IV bolus, 2.5 mg/kg, HCl salt) was 1.95 h and the AUC(0-inf) [1, 11] was 882 ng·h/mL. For the same compound, the AUC(0-t) [1, 11] was 854 ng·h/mL, the AUC(0-inf) [1, 12] was 1150 ng·h/mL and the AUC(0-t) [1, 12] was 1500 ng·h/mL. It also gave a Cmax [1, 12] of 205 ng/mL, a Tmax [1, 12] of 0.5 to 4 h and a half-life [1, 12] of 3.21 h. The AUC(0-inf) [1, 13] was 1540 ng·h/mL, the AUC(0-t) [1, 13] was 1400 ng·h/mL and the Cmax [1, 13] was 247 ng/mL. The Tmax [1, 13] was 0.5 to 2 h and the half-life [1, 13] was 3.65 h.

C[C@@H]1CN(c2cnc(C(F)(F)F)cn2)C[C@@H](C)N1C(=O)NCCC1CCN(Cc2ccccc2)CC1 [Compound 4A] showed a Ki (human M4 receptor) of 5 nM, a clearance ([1]; IV bolus, 1 mg/kg, HCl salt) of 56.6 mL/min/kg and a Vd ([1]; IV bolus, 1 mg/kg, HCl salt) of 16.1 L/kg. For the same compound, the bioavailability [1, 10] was 59.2%, the half-life [1, 3] was 5.01 h and the AUC(0-inf) [1, 4] was 204 ng·h/mL. For the same compound, the AUC(0-t) [1, 4] was 288 ng·h/mL, the AUC(0-inf) [1, 12] was 3500 ng·h/mL and the AUC(0-t) [1, 12] was 2530 ng·h/mL. The Cmax [1, 12] was 231 ng/mL, the Tmax [1, 12] was 1 to 8 h and the half-life [1, 12] was 7.09 h. For the same compound, the AUC(0-inf) [1, 9] was 1740 ng·h/mL, the AUC(0-t) [1, 9] was 1700 ng·h/mL and the Cmax [1, 9] was 182 ng/mL. For the same compound, the Tmax [1, 9] was 0.5 to 2 h and the half-life [1, 9] was 4.2 h.
